# In patent US20030073730A1, “Use of amino-isoxazolidone compounds for treatment of memory impairment following traumatic brain injury” (G.D. Searle & Co., priority 1994, published 2003):
# Columns and labels:
# [1] = biological target: T1, NMDA receptor complex, [3H]TCP binding to synaptic plasma membranes (Rattus norvegicus, UniProt P35439); test: Assay B: TCP Modulation Assay (stimulation of [3H]TCP binding); conditions: for effect on glycine dose-response of [3H]TCP binding: D-cycloserine 0-100 μM
# T1 construct: Triton X-100 washed synaptic plasma membranes (SPM) prepared from rat forebrain; from tissue; host or cells: rat forebrain synaptic plasma membranes (male Sprague-Dawley, 30-45 days old), Triton X-100 washed
# Protocol: [^3H]TCP binding was performed using Triton X-100 washed synaptic plasma membranes (SPM) prepared from rat forebrain (30-45 day old, male SpragueDawley; Sasco, St. Charles, Mo.) as described previously [J. W. Thomas, W. F. Hood, J. B. Monahan, P. C. Contreras and T. L. O'Donohue, Brain Res., 442, 396-398 (1988)]. […] The samples were then filtered through glass fiber filters (Schleicher and Schuell #32) which were pretreated with 0.05% (v/v) polyethylenimine. The filters were washed and the radioactivity quantitated by liquid scintillation spectrometry. […] The EC50 values for the stimulation of [^3H]TCP binding were determined using a four parameter logistic regression analysis.
# [2] = test system: mentally disturbed patients; conditions: 500 mg per day; cited from earlier work
# [3] = test system: normal young and elderly human volunteers; conditions: single oral doses of 5 and 15 mg; cited from earlier work
# [4] = test system: patients with post-traumatic memory impairment; test: Assay C: Post-Traumatic Memory Impairment Study (WMS and MAS); type: in vivo, human; set-up: MAS Visual Memory score, least-square mean corrected for baseline / MAS Visual Memory, mean change from baseline / WMS Logical Memory score, mean / WMS Visual Reproduction score, mean / MAS Visual Memory score, mean / MAS Short Term Memory score, mean / MAS Verbal Memory score, mean: scale not given here
# Protocol: The primary objective of this pilot study was to assess in patients with post-traumatic memory impairment: 1) The effect of a single 15 mg dose of cycloserine using the Wechsler Memory Scale (WMS) [D. Wechsler, Wechsler Memory Scale, Manual., Psychological Corporation, New York (1945)]; and 2) The effect of 5 multiple doses of 15 mg of cycloserine over 72 hours using the Memory Assessment Scales (MAS) [J. M Williams, The Memory Assessment Scales., Pyschological Assessment Resources, Odessa, Fla. (1991)]. The secondary objective of this study was to evaluate the safety of cycloserine in patients with traumatic brain injury.
# The study was conducted by six investigators at six investigational sites in the United States. This was a multicenter, randomized, doubleblind, parallel group, placebo-controlled study in headtrauma patients who were experiencing significant memory disorder. Patients were randomized to receive placebo or 15 mg doses of cycloserine for a total of five equally spaced doses (morning and evening) over a 72-hour period. Safety and efficacy measurements were obtained at the screening and on Days 1 through 4 of the study. A sufficient number of patients were enrolled in the study to assure that 60 evaluable patients (30 in the cycloserine treatment group and 30 in the placebo treatment group) would complete the study.
# Patients considered for enrollment were to have sustained closed head injury (ICD-9-CM#800) and post-traumatic memory impairment established by clinical examination supported by the Hahnemann Orientation and Memory Examination (HOME) [J. M. Williams, In: C. J. Long, L. Ross and M. Mutchnick, eds. Traumatic Brain Injury, Plenum, N.Y. (1990)]. The Anterograde Amnesia score was to be between 0 and 21 inclusive and the patient was to have sufficient cognitive recovery to complete the Hahnemann Memory Screening Test (MST) with a score of at least 9 [J. M. Williams, Ibid.]. Patients were to be at least 18 years of age, weighing between 40 and 100 kg, and female patients could not be at risk of pregnancy. Patients were to have a stable medical condition following the traumatic injury and be judged by the investigator to have adequate nutritional status. [Patients could have other traumatic injuries provided they were under treatment and there was no clinically significant infection or general sepsis.]
# Criteria for exclusion from the study included current or history of significant systemic disorder, brain disorder, or any neurological disorder with cognitive implications other than traumatic brain injury (e.g., brain tumor). Also excluded were patients with current or history of diagnosed epilepsy or documented convulsions, or clinically significant abnormalities of thyroid function, folic acid or B12. Clinically significant cardiovascular, renal, pulmonary, hepatic, gastrointestinal, infectious or hematological illness could preclude patient participation in the study (judgment of the Investigator). Concomitant medication, or medication given within seven days prior to the start of the study could preclude patient participation in the study (judgment of the Investigator and/or Clinical Monitor). Inability to follow study procedures, poor comprehension of study language, uncorrectable loss of hearing or eyesight which would interfere with study participation excluded patients from the study. Patients who had received an acridine derivative within 90 days prior to enrollment or another investigational drug within 30 days enrollment or who were known to have a hypersensitivity to cycloserine or related compounds were also excluded. This study also excluded patients taking or expected to take Hydergine, cerebral vasodilators, nootropics, choline, lecithin or amino acids. Clinically significant laboratory values outside the normal range or previous admission to the study excluded patients from participation in the study.
# All study medication was provided by G. D. Searle & Co., Skokie, Ill. […]
# elderly population = conditions: absence of scopolamine, single oral doses of 5 and 15 mg; cited from earlier work
smiles,measurement,setting,value
"NC1CONC1=O (single isomer, unassigned) [D-cycloserine, 4-amino-3-isoxazolidone]",effect on glycine dose-response of [3H]TCP binding,[1]; glycine concentrations 0.1-15 μM,rightward shift in the dose-response curve
same,effect on glycine dose-response of [3H]TCP binding,[1]; glycine concentrations below 0.1 μM,potentiated the glycine stimulation
same,effect on glycine stimulation of [3H]TCP binding,[1]; in the presence of glycine 0.1-0.6 μM,reduces the maximal level of glycine stimulation
same,clinical response in mental disorders,[2],"improvements in depression, insomnia, anexoria or tension were found for some patients"
same,effect on scopolamine-induced memory deficits,[3],can ameliorate some memory deficits induced by scopolamine
same,"MAS Short Term Memory score, mean",[4]; Baseline,81.7
same,"MAS Verbal Memory score, mean",[4]; Baseline,78.2
same,"MAS Visual Memory score, mean",[4]; Baseline,77.2
same,"WMS Logical Memory score, mean","[4]; Baseline, prior to first dose",8.88
same,"WMS Visual Reproduction score, mean","[4]; Baseline, prior to first dose",8.70
same,"WMS Logical Memory score, mean","[4]; Day 2, after one 15 mg dose",8.24
same,"WMS Visual Reproduction score, mean","[4]; Day 2, after one 15 mg dose",8.42
same,WMS Visual Reproduction score corrected for baseline versus placebo,"[4]; Day 2, one dose, p=0.59",did not differ significantly
same,WMS Logical Memory score corrected for baseline versus placebo,"[4]; Day 2, one dose, p=0.72",did not differ significantly
same,"MAS Short Term Memory score, mean","[4]; Day 4, after five 15 mg doses",85.9
same,"MAS Verbal Memory score, mean","[4]; Day 4, after five 15 mg doses",75.8
same,"MAS Visual Memory score, mean","[4]; Day 4, after five 15 mg doses",85.5
same,"MAS Visual Memory score, least-square mean corrected for baseline","[4]; Day 4, five 15 mg doses, placebo 78.7",87.5
same,"MAS Visual Memory, mean change from baseline","[4]; Day 4, five 15 mg doses, placebo −1.50",8.54
same,MAS Visual Memory score versus placebo,"[4]; Day 4, p=0.023",significantly higher
same,MAS Verbal Memory versus placebo,"[4]; Day 4, p=0.31",not significantly different
same,MAS Short Term Memory versus placebo,"[4]; Day 4, p=0.72",not significantly different
same,effect on cognitive parameters,elderly population,significant positive effects on the cognitive parameters
NCC(=O)O [Glycine],maximum specific [3H]TCP binding,"[1]; 0.6 μM glycine, basal binding 2583±381 DPM",4712±779 DPM
c1csc(C2(N3CCCCC3)CCCCC2)c1 [[^3H]TCP],Kd,[1]; basal conditions,44 nM
